# Columns and labels:
# M-NFS-60 cells = assay: M-NFS-60 cell in vitro assay (CCK, 48 h, M-CSF factor medium); assay type: cell-based; conditions: M-NFS-60 cells; read-out: M-NFS-60cellassay IC50
# Procedure, shortened: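 Mouse M-NFS-60 cells (2000/well) in RPMI-1640 with 10% serum and M-CSF (25 ng/ml) were pre-incubated 4 h, then exposed to DMSO-diluted compound gradients for 48 h at 5% CO2. Viability read by CCK, 2 h, OD 450 nm; IC50 from curve fitting.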
# DDR1 = DDR1 (Homo sapiens, UniProt Q08345); assay: DDR1 in vitro kinase activity assay (LanthaScreen Eu-anti-GST antibody / Kinase Tracer 178); assay type: binding; conditions: for inhibition at 0.01 µM: compound 10 nM, read-out: DDR1 inhibition rate, 10 nM; for inhibition at 0.1 µM: compound 100 nM, read-out: DDR1 inhibition rate, 100 nM
# Sequence of DDR1 (Q08345 19-913): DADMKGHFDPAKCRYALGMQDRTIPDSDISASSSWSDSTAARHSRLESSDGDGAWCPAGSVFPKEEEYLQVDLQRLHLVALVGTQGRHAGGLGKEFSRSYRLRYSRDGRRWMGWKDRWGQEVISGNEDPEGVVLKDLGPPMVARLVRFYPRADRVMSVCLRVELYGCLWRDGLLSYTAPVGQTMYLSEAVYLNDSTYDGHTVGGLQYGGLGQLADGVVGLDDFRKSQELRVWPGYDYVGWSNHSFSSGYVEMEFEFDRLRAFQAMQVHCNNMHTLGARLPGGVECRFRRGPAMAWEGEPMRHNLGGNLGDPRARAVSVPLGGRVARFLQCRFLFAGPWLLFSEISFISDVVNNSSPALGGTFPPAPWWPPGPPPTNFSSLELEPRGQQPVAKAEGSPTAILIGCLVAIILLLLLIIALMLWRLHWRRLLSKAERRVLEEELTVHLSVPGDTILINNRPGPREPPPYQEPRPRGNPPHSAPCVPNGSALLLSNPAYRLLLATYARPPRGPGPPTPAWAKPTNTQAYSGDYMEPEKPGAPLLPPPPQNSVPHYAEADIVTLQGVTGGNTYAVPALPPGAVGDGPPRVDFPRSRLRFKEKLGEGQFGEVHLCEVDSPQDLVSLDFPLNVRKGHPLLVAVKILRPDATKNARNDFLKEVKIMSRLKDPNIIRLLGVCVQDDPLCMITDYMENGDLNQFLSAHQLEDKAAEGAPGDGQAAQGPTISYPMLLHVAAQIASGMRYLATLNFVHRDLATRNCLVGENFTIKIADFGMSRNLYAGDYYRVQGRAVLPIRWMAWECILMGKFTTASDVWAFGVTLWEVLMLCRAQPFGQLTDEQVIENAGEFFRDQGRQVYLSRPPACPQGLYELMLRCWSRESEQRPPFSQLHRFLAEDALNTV
# Experimental: DDR1 in vitro Kinase Activity Assay:
# • ENVISION (Perkinelmer, 2104) • White 384-well MicroPlate (Cat #264706, Nunc) • DDR1 (Cat #PV6047, Invitrogen) • 5× Kinase Buffer A (Cat #PV3189, Invitrogen) • Kinase Tracer 178 (Cat #PV5593, Invitrogen) • LanthaScreen® Eu-anti-GST Antibody (Cat #PV5594, Invitrogen)
# The compounds to be tested were tested at two concentrations of 100 nM and 10 nM.
# Kinase/Antibody Mixtures Preparation: Dilute Kinase/Antibody Mixtures with 1× Kinase Buffer to form 3× working solutions with final concentrations of 5 nM kinase and 2 nM Eu-Anti-GST Antibody, respectively.
# Kinase Tracer 178 Preparation: Dilute Kinase Tracer 178 with 1× Kinase Buffer to make a 3× working solution with a final concentration of 10 nM.
# After all reagents were prepared according to the methods described above, except for the enzyme, they were equilibrated to room temperature before starting the sample addition. • a) First, 3% DMSO solutions were prepared separately using the pre-prepared 1× kinase buffer (DMSO concentrations that were too high could affect the reaction, so the final concentration of DMSO was controlled at 1%). Then, the corresponding 3% DMSO solution for the enzyme was used to dilute the test compounds. Compounds were screened with two concentrations of 100 nM and 10 nM. Except for the control wells, 5 μL of the diluted test compound solution was added to the reaction wells, and 5 μL of the pre-prepared 3% DMSO solution was added to the control wells. • b) 5 μL of the pre-prepared Kinase/Antibody mixtures was added to all reaction wells except the negative control wells. For the negative control wells, 5 μL of 1× kinase buffer corresponding to the enzyme was added to make up the volume. • c) 5 μL of the pre-prepared Kinase Tracer 178 solution was added to all reaction wells. • d) The plate was sealed and mixed, incubated at room temperature for 1 hour, and the fluorescence signal was detected using the ENVISION (PerkinElmer) instrument (excitation at 340 nm, emission at 665 nm and 615 nm). The inhibition rate for each well was calculated based on the full-activity control wells and background signal wells, and the average value of the replicates was taken.
inhibition at 0.01 µM (DDR1),inhibition at 0.1 µM (DDR1),Structure (SMILES),IC50 (M-NFS-60 cells)
20%,98.4%,"Cn1ncc2ncc(N[C@H]3CCc4c(Nc5cc(C(C)(C)C)on5)cccc43)nc21 [Compound 86, (S)—N^4-(5-(tert-butyl)isoxazol-3-yl)-N1-(1-methyl-1H-pyrazolo[3,4-b]pyrazin-6-yl)-2,3-dihydro-1H-indene-1,4-diamine]",< 50 nM
86.1%,96.7%,Cc1cncc(NC(=O)c2cccc3c2CC[C@@H]3Oc2cncc(-c3cnn(C)c3)c2)c1 [Compound 19j],< 50 nM
14.7%,83.9%,CN(c1cnc2cn(C)nc2c1)[C@H]1CCc2c(C(=O)Nc3cncc(Cl)c3)cccc21 [Compound 80k],< 50 nM
81.4%,89.9%,"Cc1cc(NC(=O)c2cccc3c2CC[C@@H]3Oc2cncc(-c3cnn(C)c3)c2)cc(C)n1 [Compound 19k, (S)—N-(2,6-dimethylpyridin-4-yl)-1-((5-(1-methyl-1H-pyrazol-4-yl)pyridin-3-yl)oxy)-2,3-dihydro-1H-indene-4-carboxamide]",< 50 nM
20.2%,78.2%,"Cn1cc(-c2cncc(N[C@H]3CCc4c(Nc5cc(C(C)(C)C)on5)cccc43)c2)cn1 [Compound 41, (S)—N^4-(5-(tert-butyl)isoxazol-3-yl)-N^1-(5-(1-methyl-1H-pyrazol-4-yl)pyridin-3-yl)-2,3-dihydro-1H-indene-1,4-diamine]",< 50 nM
88.6%,98.2%,"Cn1cc(-c2cnc(N)c(O[C@H]3CCc4c(C(=O)Nc5cccc(C6CC6)c5)cccc43)c2)cn1 [Compound 4, (S)-1-((2-amino-5-(1-methyl-1H-pyrazol-4-yl)pyridin-3-yl)oxy)-N-(3-cyclopropylphenyl)-2,3-dihydro-1H-indene-4-carboxamide]",< 50 nM
21.2%,69.7%,Cc1cccc(NC(=O)c2cccc3c2CC[C@@H]3Oc2cnc3cn(C)nc3c2)n1 [Compound 76bd],< 50 nM
64%,93.6%,Cn1cc2ncc(O[C@H]3CCc4c(C(=O)Nc5nn(C)c6cccc(F)c56)cccc43)cc2n1 [Compound 76aw],< 50 nM
98%,98.5%,Cn1cc2ncc(O[C@H]3CCc4c(C(=O)Nc5nn(C)c6ccccc56)cccc43)cc2n1 [Compound 76al],< 50 nM
84%,105%,Cn1cc(-c2cncc(O[C@H]3CCc4c(C(=O)Nc5cccc(C6CC6)c5)cccc43)c2)cn1 [Compound 19b],< 50 nM
75.1%,97.9%,CN(c1cnc2cn(C)nc2c1)[C@H]1CCc2c(C(=O)Nc3nn(C)c4ccccc34)cccc21 [Compound 80l],< 50 nM
32.4%,61.4%,CN1CCc2nc(NC(=O)c3cccc4c3CC[C@@H]4Nc3cncc(-c4cnn(C)c4)c3)sc2C1 [Compound 14ba],< 50 nM
90.2%,95.1%,"Cc1cccc(NC(=O)c2cccc3c2CC[C@@H]3Nc2cncc(-c3cnn(C)c3)c2)c1 [Compound 13, (S)-1-((5-(1-methyl-1H-pyrazol-4-yl)pyridin-3-yl)amino)-N-(m-tolyl)-2,3-dihydro-1H-indene-4-carboxamide]",< 50 nM
72.5%,103%,"Cn1ncc2ncc(O[C@H]3CCc4c(C(=O)Nc5cncc(Cl)c5)cccc43)cc21 [Compound 76ac, (S)—N-(5-chloropyridin-3-yl)-1-((1-methyl-1H-pyrazolo[4,3-b]pyridin-6-yl)oxy)-2,3-dihydro-1H-indene-4-carboxamide]",< 50 nM
75.8%,100%,CN1CCc2ccc(NC(=O)c3cccc4c3CC[C@@H]4Nc3cncc(-c4cnn(C)c4)c3)cc2C1 [Compound 14ap],< 50 nM
94.2%,99.6%,Cn1cc2ncc(O[C@H]3CCc4c(C(=O)Nc5cncc(Cl)c5)cccc43)cc2n1 [Compound 76ai],< 50 nM

# The remaining lines, values behind:
Structure (SMILES),inhibition at 0.01 µM (DDR1),inhibition at 0.1 µM (DDR1),IC50 (M-NFS-60 cells)
"Cn1ncc2ncc(N[C@H]3CCc4c(C(=O)Nc5cccc(C6CC6)c5)cccc43)cc21 [Compound 73, (S)—N-(3-cyclopropylphenyl)-1-((1-methyl-1H-pyrazolo[4,3-b]pyridin-6-yl)amino)-2,3-dihydro-1H-indene-4-carboxamide]",72.5%,103%,< 50 nM
CN(C)Cc1cncc(NC(=O)c2cccc3c2CC[C@@H]3Oc2cncc(-c3cnn(C)c3)c2)c1 [Compound 19h],65.3%,97.1%,> 500 nM
"CN(c1cncc(-c2cnn(C)c2)c1)[C@H]1CCc2c(C(=O)Nc3cncc(Cl)c3)cccc21 [Compound 21, (S)—N-(5-chloropyridin-3-yl)-1-(methyl (5-(1-methyl-1H-pyrazol-4-yl)pyridin-3-yl)amino)-2,3-dihydro-1H-indene-4-carboxamide]",29.7%,88%,50 to 200 nM
"Cn1cc2ncc(N[C@H]3CCc4c(C(=O)Nc5nc(C6CC6)cs5)cccc43)cc2n1 [Compound 74h, (S)—N-(4-cyclopropylthiazol-2-yl)-1-((2-methyl-2H-pyrazolo[4,3-b]pyridin-6-yl)amino)-2,3-dihydro-1H-indene-4-carboxamide]",57.2%,99.9%,< 50 nM
"Cn1cc(-c2cncc(N[C@H]3CCc4c(C(=O)Nc5nn(C)c6ccccc56)cccc43)n2)cn1 [Compound 27g, (S)—N-(1-methyl-1H-indazol-3-yl)-1-((6-(1-methyl-1H-pyrazol-4-yl)pyrazin-2-yl)amino)-2,3-dihydro-1H-indene-4-carboxamide]",92.1%,101%,< 50 nM
"Cc1cccc(C(=O)Nc2cccc3c2CC[C@@H]3Oc2cncc(-c3cnn(C)c3)c2)c1 [Compound 15, (S)-3-methyl-N-(1-((5-(1-methyl-1H-pyrazol-4-yl)pyridin-3-yl)oxy)-2,3-dihydro-1H-inden-4-yl)benzamide]",15.9%,88%,200 to 500 nM
Cn1cc(-c2cncc(N[C@H]3CCc4c(Nc5noc(C(C)(C)C)n5)cccc43)c2)cn1 [Compound 42o],4.1%,67.6%,50 to 200 nM
CN1CCc2nc(NC(=O)c3cccc4c3CC[C@@H]4Oc3cncc(-c4cnn(C)c4)c3)sc2C1 [Compound 19f],23.1%,53.5%,50 to 200 nM
Cc1cncc(NC(=O)c2cccc3c2CC[C@@H]3Nc2cncc(-c3cnn(C)c3)c2)c1 [Compound 14as],94.7%,103%,< 50 nM
"Cn1cc(-c2cncc(N[C@H]3CCc4c(C(=O)Nc5cncc(Cl)c5)cccc43)c2)cn1 [Compound 14aa, (S)—N-(5-chloropyridin-3-yl)-1-((5-(1-methyl-1H-pyrazol-4-yl)pyridin-3-yl)amino)-2,3-dihydro-1H-indene-4-carboxamide]",93.2%,104%,< 50 nM
Cn1cc(-c2cncc(N[C@H]3CCc4c(C(=O)Nc5ccc(C(F)(F)F)nc5)cccc43)c2)cn1 [Compound 14ah],37.9%,85.6%,< 50 nM
"CN(c1cncc(-c2cnn(C)c2)c1)[C@H]1CCc2c(C(=O)Nc3cccc(C4CC4)c3)cccc21 [Compound 22a, (S)—N-(3-cyclopropylphenyl)-1-(methyl (5-(1-methyl-1H-pyrazol-4-yl)pyridin-3-yl)amino)-2,3-dihydro-1H-indene-4-carboxamide]",32.4%,86%,< 50 nM
"Cn1cc(-c2cncc(O[C@H]3CCc4c(C(=O)Nc5cncc(Cl)c5)cccc43)c2)cn1 [Compound 19a, (S)—N-(5-chloropyridin-3-yl)-1-((5-(1-methyl-1H-pyrazol-4-yl)pyridin-3-yl)oxy)-2,3-dihydro-1H-indene-4-carboxamide]",69.4%,102%,< 50 nM

# — patent US20260125359A1, “HETEROARYL COMPOUNDS AS MULTI-TARGET PROTEIN KINASE INHIBITORS” (FUJIAN HAIXI PHARMACEUTICALS CO., LTD., priority 2023, published 2026)
